Experimental data published in patent publication US10842152B2, “Isothiazolo-based bicycles, processes for their preparation and their use as herbicides and/or plant growth regulators” (Bayer CropScience Aktiengesellschaft, priority 2017, dated 2020).

Tests used:
[1] = system: Setaria viridis; assay: Herbicidal effect post-emergence; assay type: in vivo; settings: 320 g/ha, visual grading after ca. 3 weeks (Table 8)
Method in brief: (§1)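 Greenhouse plants in sandy loam sprayed post-emergence at single-leaf stage (2-3 weeks after sowing) with WP or EC formulations plus 0.5% additive at 600 l water/ha. Damage scored visually after ca. 3 weeks versus untreated controls, 0% (as control) to 100% (dead).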

[2] = system: Amaranthus retroflexus; assay: Herbicidal effect post-emergence; assay type: in vivo; settings: 320 g/ha, visual grading after ca. 3 weeks (Table 8)
Method in brief: as §1

[3] = system: Abutilon theophrasti; assay: Herbicidal effect post-emergence; assay type: in vivo; settings: 320 g/ha, visual grading after ca. 3 weeks (Table 8)
Method in brief: as §1

[4] = system: Viola tricolor; assay: Herbicidal effect post-emergence; assay type: in vivo; settings: 320 g/ha, visual grading after ca. 3 weeks (Table 8)
Method in brief: as §1

[5] = system: Phaedon cochleariae; assay: Phaedon cochleariae spray test; assay type: in vivo; settings: application rate 500 g/ha, after 7 days, Chinese cabbage leaf disks
Experimental: Solvent: 78.0 parts by weight of acetone • • 1.5 parts by weight of dimethylformamide
Emulsifier: alkylarylpolyglycol ether
To produce a suitable preparation of active compound, 1 part by weight of active compound is mixed with the stated amount of solvents and is diluted with water, containing an emulsifier concentration of 1000 ppm, to the desired concentration. Further test concentrations are prepared by dilution with emulsifier containing water.
Chinese cabbage (Brassica pekinensis) leaf disks are sprayed with a preparation of the active ingredient of the desired concentration. Once dry, the leaf disks are infested with mustard beetle larvae (Phaedon cochleariae).
After 7 days mortality in % is determined. 100% means all beetle larvae have been killed and 0% means none of the beetle larvae have been killed.

[6] = system: Stellaria media; assay: Herbicidal effect pre-emergence; assay type: in vivo; settings: 320 g/ha, visual grading after ca. 3 weeks vs untreated controls
Method in brief: (§2)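 Pre-emergence: WP or EC formulations applied as aqueous suspension/emulsion with 0.5% additive at 600 l water/ha onto covering soil of freshly sown pots in sandy loam. Greenhouse under optimum conditions; visual damage scored after ca. 3 weeks versus untreated controls (100% = plants died, 0% = as control).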

[7] = system: Setaria viridis; assay: Herbicidal effect pre-emergence; assay type: in vivo; settings: 320 g/ha, visual grading after ca. 3 weeks vs untreated controls
Method in brief: as §2

[8] = system: Amaranthus retroflexus; assay: Herbicidal effect pre-emergence; assay type: in vivo; settings: 320 g/ha, visual grading after ca. 3 weeks vs untreated controls
Method in brief: as §2

[9] = system: Alopecurus myosuroides; assay: Herbicidal effect pre-emergence; assay type: in vivo; settings: 320 g/ha, visual grading after ca. 3 weeks vs untreated controls
Method in brief: as §2

[10] = system: Viola tricolor; assay: Herbicidal effect pre-emergence; assay type: in vivo; settings: 320 g/ha, visual grading after ca. 3 weeks vs untreated controls
Method in brief: as §2

[11] = system: MATIN; assay: Herbicidal effect pre-emergence; assay type: in vivo, Matricaria inodora; settings: 320 g/ha, visual grading after ca. 3 weeks vs untreated controls
Method in brief: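 Pre-emergence: compounds as WP or EC applied to soil surface over sown weed and crop seeds in sandy loam, as aqueous suspension/emulsion with 0.5% additive at 600 l water/ha. Greenhouse-grown; damage graded visually after ca. 3 weeks versus untreated controls (0% none, 100% plants died).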

## CC(=O)Nc1nsc2c(=O)n(CC3CCCCC3)cc(Cl)c12 [Example I-084]
[1]
  herbicidal effect SETVI: 100%
[2]
  herbicidal effect AMARE: 100%
[3]
  herbicidal effect ABUTH: 100%
[4]
  herbicidal effect VIOTR: 100%
[5]
  mortality: 83%
[6]
  herbicidal effect STEME: 100%
[7]
  herbicidal effect SETVI: 100%
[8]
  herbicidal effect AMARE: 100%
[9]
  herbicidal effect ALOMY: 100%
[10]
  herbicidal effect VIOTR: 100%
[11]
  herbicidal effect MATIN: 100%
